Consider one compound from ChEMBL document CHEMBL1150975, “Biochemical and three-dimensional-structural study of the specific inhibition of protein kinase CK2 by [5-oxo-5,6-dihydroindolo-(1,2-a)quinazolin-7-yl]acetic acid (IQA)” (Biochem J, 2003).

pIC50: −log10 of the molar value.

The target of assay [1] is Dual specificity tyrosine-phosphorylation-regulated kinase 1A (Homo sapiens, UniProt Q13627). Put plainly: Inhibition of DYRK1a.
In assay [2] the target is Glycogen synthase kinase-3 beta (Homo sapiens, UniProt P49841). Put plainly: Inhibition of GSK3-beta.
Assay [3] has as its target Vascular endothelial growth factor receptor 3 (Homo sapiens) (UniProt P35916). The experiment in a line: Percent residual Flt-4 activity in the presence of 10uM inhibitor.
For assay [4], the target named is Hepatocyte growth factor receptor (Homo sapiens) (UniProt P08581). Put plainly: Percent residual c-Met activity in the presence of 10uM inhibitor.
The target in assay [5] is Receptor tyrosine-protein kinase erbB-2 (Homo sapiens) (UniProt P04626). The experiment in a line: Percent residual Her-2 activity in the presence of 10uM inhibitor.
Assay [6] concerns the target Vascular endothelial growth factor receptor 1 (Homo sapiens) (UniProt P17948). The experiment in a line: Percent residual Flt-1 activity in the presence of 10uM inhibitor.

Glycogen synthase kinase-3 beta, sequence (P49841 whole entry): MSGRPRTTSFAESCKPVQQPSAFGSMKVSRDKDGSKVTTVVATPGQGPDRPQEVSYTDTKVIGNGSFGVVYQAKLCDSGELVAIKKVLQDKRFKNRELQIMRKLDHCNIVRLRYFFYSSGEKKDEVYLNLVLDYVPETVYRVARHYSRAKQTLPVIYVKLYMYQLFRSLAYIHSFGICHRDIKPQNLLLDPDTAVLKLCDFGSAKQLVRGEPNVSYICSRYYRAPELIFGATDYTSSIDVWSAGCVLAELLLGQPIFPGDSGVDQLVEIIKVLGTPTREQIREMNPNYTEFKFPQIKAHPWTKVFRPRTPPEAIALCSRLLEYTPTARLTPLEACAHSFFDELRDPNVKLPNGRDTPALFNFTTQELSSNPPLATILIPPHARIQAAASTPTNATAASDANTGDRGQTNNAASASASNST
Hepatocyte growth factor receptor (Homo sapiens), sequence (P08581 whole entry): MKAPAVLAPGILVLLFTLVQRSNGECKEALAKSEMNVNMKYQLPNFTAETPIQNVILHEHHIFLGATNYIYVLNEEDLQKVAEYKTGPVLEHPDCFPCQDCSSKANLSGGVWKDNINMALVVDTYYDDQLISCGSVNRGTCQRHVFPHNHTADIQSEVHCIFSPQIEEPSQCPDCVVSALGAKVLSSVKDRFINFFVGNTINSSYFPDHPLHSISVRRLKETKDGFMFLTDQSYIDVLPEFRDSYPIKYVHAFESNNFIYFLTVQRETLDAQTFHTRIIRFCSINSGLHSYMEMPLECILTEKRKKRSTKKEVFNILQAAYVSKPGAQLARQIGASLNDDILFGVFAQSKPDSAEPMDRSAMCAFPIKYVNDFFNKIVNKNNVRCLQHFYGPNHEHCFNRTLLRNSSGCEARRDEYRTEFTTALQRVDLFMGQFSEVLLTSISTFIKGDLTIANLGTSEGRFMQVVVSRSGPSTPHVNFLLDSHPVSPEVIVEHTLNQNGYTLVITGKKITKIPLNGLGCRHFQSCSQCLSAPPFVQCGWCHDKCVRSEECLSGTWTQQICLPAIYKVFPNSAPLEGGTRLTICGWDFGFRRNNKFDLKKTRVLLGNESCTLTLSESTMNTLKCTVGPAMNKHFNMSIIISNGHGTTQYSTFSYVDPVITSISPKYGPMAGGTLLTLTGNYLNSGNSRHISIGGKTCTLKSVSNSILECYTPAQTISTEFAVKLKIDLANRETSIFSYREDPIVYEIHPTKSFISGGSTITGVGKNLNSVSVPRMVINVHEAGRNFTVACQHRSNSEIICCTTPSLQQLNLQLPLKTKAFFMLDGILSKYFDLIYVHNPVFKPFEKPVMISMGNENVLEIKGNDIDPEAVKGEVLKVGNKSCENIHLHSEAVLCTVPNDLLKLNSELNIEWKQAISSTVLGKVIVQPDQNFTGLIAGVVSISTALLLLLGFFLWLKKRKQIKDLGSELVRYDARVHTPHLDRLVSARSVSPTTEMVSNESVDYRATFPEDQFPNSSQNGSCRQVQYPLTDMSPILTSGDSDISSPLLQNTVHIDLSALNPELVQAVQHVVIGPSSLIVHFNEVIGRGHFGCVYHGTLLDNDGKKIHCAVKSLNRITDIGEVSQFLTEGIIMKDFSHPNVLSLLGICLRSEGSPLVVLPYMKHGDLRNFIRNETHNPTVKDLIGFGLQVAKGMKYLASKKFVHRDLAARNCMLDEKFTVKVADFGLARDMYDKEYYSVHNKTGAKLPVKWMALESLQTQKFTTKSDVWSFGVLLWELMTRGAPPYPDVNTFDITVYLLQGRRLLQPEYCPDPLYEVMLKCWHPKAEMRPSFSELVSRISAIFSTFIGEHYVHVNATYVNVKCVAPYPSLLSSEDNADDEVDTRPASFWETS
Vascular endothelial growth factor receptor 1 (Homo sapiens), sequence (P17948 whole entry): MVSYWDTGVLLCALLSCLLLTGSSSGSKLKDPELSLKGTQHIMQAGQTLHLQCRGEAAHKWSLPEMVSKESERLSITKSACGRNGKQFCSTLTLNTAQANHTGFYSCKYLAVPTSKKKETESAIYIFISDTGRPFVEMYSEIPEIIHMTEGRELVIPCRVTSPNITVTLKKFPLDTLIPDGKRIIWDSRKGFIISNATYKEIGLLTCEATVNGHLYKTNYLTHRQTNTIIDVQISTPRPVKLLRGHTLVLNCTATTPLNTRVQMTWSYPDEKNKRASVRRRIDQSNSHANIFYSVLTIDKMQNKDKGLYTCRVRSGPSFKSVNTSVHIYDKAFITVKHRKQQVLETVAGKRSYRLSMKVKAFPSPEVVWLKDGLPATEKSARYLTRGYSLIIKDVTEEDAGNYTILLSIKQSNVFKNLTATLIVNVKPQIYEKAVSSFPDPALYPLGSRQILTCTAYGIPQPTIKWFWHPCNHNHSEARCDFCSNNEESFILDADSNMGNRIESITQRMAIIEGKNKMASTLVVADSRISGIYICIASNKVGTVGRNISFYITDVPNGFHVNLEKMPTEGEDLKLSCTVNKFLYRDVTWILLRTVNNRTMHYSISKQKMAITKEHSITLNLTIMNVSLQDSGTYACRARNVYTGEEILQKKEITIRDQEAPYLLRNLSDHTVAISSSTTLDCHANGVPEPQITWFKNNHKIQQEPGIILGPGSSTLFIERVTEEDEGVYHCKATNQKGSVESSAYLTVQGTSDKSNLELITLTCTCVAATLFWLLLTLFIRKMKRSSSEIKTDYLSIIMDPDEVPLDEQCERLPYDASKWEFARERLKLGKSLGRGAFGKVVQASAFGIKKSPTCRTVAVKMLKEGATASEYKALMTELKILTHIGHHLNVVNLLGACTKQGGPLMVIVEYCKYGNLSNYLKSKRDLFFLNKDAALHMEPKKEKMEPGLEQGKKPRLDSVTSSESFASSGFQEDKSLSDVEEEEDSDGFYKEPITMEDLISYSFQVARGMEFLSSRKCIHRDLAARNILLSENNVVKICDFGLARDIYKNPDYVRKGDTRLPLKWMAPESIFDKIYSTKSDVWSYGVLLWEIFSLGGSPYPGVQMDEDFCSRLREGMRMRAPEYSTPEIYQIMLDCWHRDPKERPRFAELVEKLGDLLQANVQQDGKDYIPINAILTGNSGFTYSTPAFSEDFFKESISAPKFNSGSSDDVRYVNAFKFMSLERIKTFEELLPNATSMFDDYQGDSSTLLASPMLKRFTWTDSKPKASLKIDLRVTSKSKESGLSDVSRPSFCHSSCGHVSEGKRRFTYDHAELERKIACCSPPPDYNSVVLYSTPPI
Receptor tyrosine-protein kinase erbB-2 (Homo sapiens), sequence (P04626 whole entry): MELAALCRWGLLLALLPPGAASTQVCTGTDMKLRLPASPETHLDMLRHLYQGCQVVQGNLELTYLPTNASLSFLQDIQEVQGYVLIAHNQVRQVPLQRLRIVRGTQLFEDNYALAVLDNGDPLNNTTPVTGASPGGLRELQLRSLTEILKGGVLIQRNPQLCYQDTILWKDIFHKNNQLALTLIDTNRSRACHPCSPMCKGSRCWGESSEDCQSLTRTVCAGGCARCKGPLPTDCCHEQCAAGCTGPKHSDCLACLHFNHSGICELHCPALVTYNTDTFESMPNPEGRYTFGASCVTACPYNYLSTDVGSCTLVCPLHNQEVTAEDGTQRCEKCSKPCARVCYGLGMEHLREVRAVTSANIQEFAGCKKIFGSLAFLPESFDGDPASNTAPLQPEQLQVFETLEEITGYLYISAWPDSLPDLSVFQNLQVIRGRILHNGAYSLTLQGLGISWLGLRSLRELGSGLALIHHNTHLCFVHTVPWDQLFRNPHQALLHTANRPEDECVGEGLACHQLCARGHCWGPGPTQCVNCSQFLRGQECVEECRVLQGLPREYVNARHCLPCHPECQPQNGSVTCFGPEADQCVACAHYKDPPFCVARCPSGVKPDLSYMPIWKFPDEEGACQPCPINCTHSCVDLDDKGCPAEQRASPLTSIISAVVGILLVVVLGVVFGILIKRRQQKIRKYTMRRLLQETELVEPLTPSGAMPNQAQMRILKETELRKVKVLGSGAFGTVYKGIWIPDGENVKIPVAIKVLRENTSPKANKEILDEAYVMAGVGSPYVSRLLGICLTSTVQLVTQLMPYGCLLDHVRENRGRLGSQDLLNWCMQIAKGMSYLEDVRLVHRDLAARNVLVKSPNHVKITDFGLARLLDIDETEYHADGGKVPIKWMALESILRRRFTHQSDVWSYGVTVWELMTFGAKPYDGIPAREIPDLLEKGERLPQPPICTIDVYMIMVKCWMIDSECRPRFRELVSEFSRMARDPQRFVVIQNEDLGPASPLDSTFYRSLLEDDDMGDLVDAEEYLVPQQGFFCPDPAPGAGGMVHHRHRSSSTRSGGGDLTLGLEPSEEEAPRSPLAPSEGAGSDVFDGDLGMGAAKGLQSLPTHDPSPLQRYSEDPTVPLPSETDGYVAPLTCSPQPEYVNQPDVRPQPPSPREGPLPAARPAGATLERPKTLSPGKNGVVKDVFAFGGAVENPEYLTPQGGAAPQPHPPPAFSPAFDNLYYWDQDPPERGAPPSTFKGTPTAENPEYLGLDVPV

On to `O=C(O)Cc1c2ccccc2n2c1[nH]c(=O)c1ccccc12`, for which the pIC50 is 5.10 in assay [1] and 4.85 in assay [2]. Also, the Activity in assay [3], in assay [4], in assay [5] and in assay [6] was 80% throughout.
